Experiments:
OR6 cells = assay: Cell viability, viable cell count after trypan blue staining; type: cell-based, human; details: 72 h, HU at each concentration up to 100 μmol/L
Experimental: In order to examine the cytotoxic effects of HU on OR6 cells, the cells were seeded onto dishes of diameter 95 mm at a density of 400,000 cells per dish, and cultured for 72 hours after adding HU to a concentration of 0, 50, 100, and 150 μmol/L, respectively. The number of viable cells was then counted by a hematocytometer after staining with trypan blue dye.

HCV RNA (virus level) = assay: Clinical test in patients with intractable hepatitis C, serum HCV RNA by real-time PCR (TaqMan); type: in vivo, human; details: oral 1500 mg/day for 4 weeks
Experimental: Serum HCV RNA level (log IU/ml) was measured every week from before the administration to the end of the therapy by the real-time detection PCR method using TaqMan (trade name) probe.

[1] = system: genome-length HCV RNA replication in OR6 cells; assay: Genome-length HCV replication assay in OR6 cells (Renilla luciferase reporter); type: cell-based, Hepatitis C virus (HCV); details: luciferase activity
Text: Briefly, the cells described in Patent Literature 1 used for the screening were as follows: That is, the cells were those obtained by introducing, into Oc cells (FERM P-20517) originated from a human hepatocarcinoma cell line HuH-7, a plasmid containing full length of HCV genome, luciferase gene as a reporter gene and neomycin-resistant gene (neomycin phosphotransferase gene) as a selection marker gene. More specifically, the cells (OR6 cells) were the Oc cells (FERM P-20517) originated from a human hepatocarcinoma cell line HuH-7, into which a plasmid having an RNA containing, from the 5′-end, internal ribosome entry site (IRES) sequence of HCV, luciferase gene, neomycin phosphotransferase gene, IRES sequence originated from encephalomyocarditis virus (EMCV), HCV open reading frame sequence and HCV 3′ untranslated sequence. After culturing the OR6 cells in a culture medium containing a test compound whose anti-viral activity against HCV (that is, therapeutic effect against hepatitis C) is to be examined, the luciferase activity of the cells is measured. […] Therefore, the lower the luciferase activity measured, the higher the anti-HCV activity. In Patent Literature 1, it was experimentally confirmed that correlation between the luciferase activity measured and the amount of HCV RNA is very high, so that it has been confirmed that this system has a high reliability. […]

[2] = system: Renilla luciferase driven by EMCV IRES in OR6c cells; assay: Control transfection: EMCV IRES-driven Renilla luciferase plasmid pEMCV-RL in cured OR6c cells; type: cell-based, human; details: cured OR6c cells transfected with pEMCV-RL, HU added 24 h after transfection, 72 h culture
Experimental: In accordance with Patent Literature 1, a plasmid encoding Renilla luciferase driven by the internal ribosome entry site (IRES) of encephalomyocarditis virus (EMCV) was transfected into OR6c cells which were OR6 cells cured by IFN, with FuGENE6 reagent (produced by Roche Diagnostics), and 24 hours after transfection, the cells were treated with various concentrations of HU and cultured for 72 hours.

[3] = serum HCV RNA (log IU/ml), 12 patients

| Substance | number of viable cells compared to untreated cells (OR6 cells) | patients with decrease in the virus level (HCV RNA) (HCV RNA (virus level); 9 out of 12 patients, intractable hepatitis C, serogroup 1, high virus level) | decrease in the virus level, average (HCV RNA (virus level); [3]) | decrease in the virus level, maximum (HCV RNA (virus level); [3]) | IC50 ([1]; 72-h treatment, HU up to 150 μmol/L, read-out: 50% replication inhibition concentration) | inhibition of Renilla fluorescence (control plasmid) [2] | 50% inhibition concentration ([1]; 72 h treatment) |
| --- | --- | --- | --- | --- | --- | --- | --- |
| hydroxyurea [HU] | no significant difference | 75% | 0.22 Log | 0.37 Log | 60 µM | did not inhibit |  |
| interferon α |  |  |  |  |  |  | 1.2 IU/mL |
